# In patent US5475010A, “7'-amino-naphthazarin antibiotic derivatives” (Gruppo Lepetit S.p.A., priority 1991, dated 1995):
# Counter-ions that a name gives are not always drawn. Like-named read-outs stand apart in the source and are kept apart here.
# Experiments:
# Format in all cases: cell-based
# [1] = tested on: Staphilococcus aureus Tour; experiment: MIC by broth microdilution, Staphylococcus aureus Tour; conditions: Iso-Sensitest broth, 37° C., 20-24 h, air
# [2] = tested on: Staphilococcus epidermidis ATCC 12228; experiment: MIC by broth microdilution, Staphylococcus epidermidis
# [3] = tested on: Staphilococcus haemolyticus (clin. isolate); experiment: MIC by broth microdilution, Staphylococcus haemolyticus
# [4] = tested on: Streptococcus pyogenes C 203; experiment: MIC by broth microdilution, Streptococcus pyogenes
# [5] = tested on: Streptococcus pneumonieae UC 41; experiment: MIC by broth microdilution, Streptococcus pneumoniae
# [6] = tested on: Enterococcus faecalis ATCC 7080; experiment: MIC by broth microdilution, Enterococcus faecalis
# [7] = tested on: Neisseria gonorrhoeae ISM 68/126; experiment: MIC by broth microdilution, Neisseria gonorrhoeae; conditions: ISM68/126, Table 2, internal code 997, approx. 10^4 cfu/ml, GC Base broth + 1% IsoVitaleX, 37° C., 48 h, 5% CO2
# [8] = tested on: Escherichia coli SKF 12140; experiment: MIC by broth microdilution, Escherichia coli
# [9] = tested on: Pseudomonas aeruginosa ATCC 10145; experiment: MIC by broth microdilution, Pseudomonas aeruginosa; conditions: ATCC10145, Table 2, internal code 4, approx. 10^4 cfu/ml, Iso-Sensitest broth, 37° C., 20-24 h, air
# [10] = tested on: Proteus vulgaris X19H ATCC 881; experiment: MIC by broth microdilution, Proteus vulgaris; conditions: ATCC881
# [11] = tested on: Tricophyton mentagrophytes; experiment: MIC by broth microdilution, Trichophyton mentagrophytes; conditions: 72 h
# [12] = tested on: Bacteroides fragiles ATCC 9689; experiment: MIC by broth microdilution, Bacteroides fragilis; conditions: ATCC9689, Table 2, internal code 1010, approx. 10^4 cfu/ml, Wilkins-Chalgren broth, 37° C., 48 h, N2-CO2-H2 (80:10:10)
# [13] = tested on: Propionibacterium acnes ATCC 6919; experiment: MIC by broth microdilution, Propionibacterium acnes; conditions: Cutibacterium acnes
# [14] = tested on: Candida albicans SKF 2270; experiment: MIC by broth microdilution, Candida albicans; conditions: Table 2; internal code 145; approx. 10^4 cfu/ml; buffered Yeast Nitrogen Base broth + glucose + L-asparagine; 37° C., 20-24 h, air
# [15] = tested on: Clostridium perfringens ISS 30543; experiment: microbe, parasite or virus in culture; conditions: ISS30543, 48 h
# [16] = tested on: Haemophilus influenzae type b ATCC 19418; experiment: MIC by broth microdilution, Haemophilus influenzae; conditions: ATCC19418, Table 2, internal code 970, approx. 10^4 cfu/ml, Brain Heart infusion broth + 1% Supplement C, 37° C., 48 h, 5% CO2
# [17] = Table 2, internal code 165, + 30% bovine serum, read-out: MIC
# [18] = Table 2, internal code 165, inoculum 10^6 cfu/ml
# [19] = Table 2, internal code 165, inoculum approx. 10^4 cfu/ml
# [20] = ATCC12228, Table 2, internal code 147, approx. 10^4 cfu/ml, Iso-Sensitest broth, 37° C., 20-24 h, air, read-out: MIC
# [21] = Table 2, internal code 602, approx. 10^4 cfu/ml, Iso-Sensitest broth, 37° C., 20-24 h, air, read-out: MIC
# [22] = UC41, Table 2, internal code 44, approx. 10^4 cfu/ml, Todd Hewitt broth, 37° C., 20-24 h, air, read-out: MIC
# [23] = ATCC7080, Table 2, internal code 149, approx. 10^4 cfu/ml, Iso-Sensitest broth, 37° C., 20-24 h, air, read-out: MIC
# [24] = ATCC6919, Table 2, internal code 1014, approx. 10^4 cfu/ml, Wilkins-Chalgren broth, 37° C., 48 h, N2-CO2-H2 (80:10:10), read-out: MIC
# [25] = Table 2, internal code 634, 1% (v/v) suspension of mycelia and conidia, YM broth, 30° C., air, read-out: MIC
# [26] = Table 2, internal code 165, + 30% bovine serum
SMILES,"MIC [1, 17]","MIC [1, 18]","MIC [1, 19]",MIC ([4]; C203),MIC ([8]; SKF12140),MIC [9],MIC [10],MIC [11],MIC [3],MIC [12],"MIC [13, 24]",MIC [14],MIC ([2]; ATCC12228),MIC ([5]; UC41),MIC ([6]; ATCC7080),"MIC [1, 26]",other results
COC(=O)c1cc2cc3c(c(O)c2c(=O)o1)OC1(Cc2c(O)c4c(c(O)c2O1)C(=O)C(NCc1ccccc1)=CC4=O)CC3O (centres unmarked) [Example 8],32 µg/mL,1 µg/mL,0.5 µg/mL,1 µg/mL,> 128 µg/mL,> 128 µg/mL,> 128 µg/mL,> 128 µg/mL,,,,,,,,,"MIC [2, 20]: 0.13 µg/mL; MIC [3, 21]: 0.13 µg/mL; MIC [5, 22]: 0.06 µg/mL; MIC [6, 23]: 4 µg/mL; MIC [7]: 0.25 µg/mL"
"COC(=O)c1cc2cc3c(c(O)c2c(=O)o1)OC1(Cc2c(O)c4c(c(O)c2O1)C(=O)C(NCCN(C)C)=CC4=O)CC3O (centres unmarked) [Example 6, 7'-(2-dimethylaminoethylen)amino purpuromycin hydrochloride]",0.25 µg/mL,,,,,128 µg/mL,128 µg/mL,128 µg/mL,0.5 µg/mL,0.5 µg/mL,0.06 µg/mL,64 µg/mL,,,,,"MIC [5, 22]: 0.06 µg/mL; MIC ([8]; SKF12140, Table 2, internal code 47, approx. 10^4 cfu/ml, Iso-Sensitest broth, 37° C., 20-24 h, air, read-out: MIC): 16 µg/mL"
"CCNC1=CC(=O)c2c(O)c3c(c(O)c2C1=O)OC1(C3)CC(O)c2cc3cc(C(=O)OC)oc(=O)c3c(O)c2O1 (centres unmarked) [Example 10, 7'-ethylamino purpuromycin]",1 µg/mL,0.06 µg/mL,0.06 µg/mL,0.06 µg/mL,> 128 µg/mL,> 128 µg/mL,> 128 µg/mL,,0.06 µg/mL,0.06 µg/mL,,,0.06 µg/mL,0.06 µg/mL,0.06 µg/mL,,"MIC ([13]; ATCC6919, 48 h): 0.06 µg/mL; MIC [11, 25]: ≤ 0.13 µg/mL"
"COC(=O)c1cc2cc3c(c(O)c2c(=O)o1)OC1(CC3)Cc2c(O)c3c(c(O)c2O1)C(=O)C(N)=CC3=O (centres unmarked) [Example 30, 7'-Amino-γ-rubromycin]",,,0.016 µg/mL,0.03 µg/mL,> 128 µg/mL,> 128 µg/mL,> 128 µg/mL,,0.016 µg/mL,0.06 µg/mL,,16 µg/mL,0.016 µg/mL,0.016 µg/mL,0.03 µg/mL,1 µg/mL,"MIC ([13]; ATCC6919, 48 h): 0.016 µg/mL; MIC [11, 25]: 16 µg/mL"
"CNC1=CC(=O)c2c(O)c3c(c(O)c2C1=O)OC1(CCc2cc4cc(C(=O)OC)oc(=O)c4c(O)c2O1)C3 (centres unmarked) [Example 32, 7'-methylamino γ-rubromycin]",,0.03 µg/mL,0.016 µg/mL,0.03 µg/mL,> 128 µg/mL,> 128 µg/mL,> 128 µg/mL,> 128 µg/mL,0.016 µg/mL,0.06 µg/mL,0.004 µg/mL,,0.016 µg/mL,0.016 µg/mL,0.03 µg/mL,0.25 µg/mL,MIC [15]: 0.016 µg/mL
"COC(=O)c1cc2cc3c(c(O)c2c(=O)o1)OC1(Cc2c(O)c4c(c(O)c2O1)C(=O)C(N)=CC4=O)CC3O (centres unmarked) [Example 25, 7'-Aminopurpuromycin]",,0.06 µg/mL,0.03 µg/mL,0.03 µg/mL,> 128 µg/mL,> 128 µg/mL,> 128 µg/mL,,0.06 µg/mL,0.06 µg/mL,0.008 µg/mL,,0.03 µg/mL,0.016 µg/mL,0.06 µg/mL,1 µg/mL,
"CCCNC1=CC(=O)c2c(O)c3c(c(O)c2C1=O)OC1(C3)CC(O)c2cc3cc(C(=O)OC)oc(=O)c3c(O)c2O1 (centres unmarked) [Example 12, 7'-propylamino purpuromycin]",,0.03 µg/mL,0.03 µg/mL,,> 128 µg/mL,128 µg/mL,128 µg/mL,128 µg/mL,,0.03 µg/mL,,64 µg/mL,,0.03 µg/mL,,2 µg/mL,"MIC [2, 20]: 0.016 µg/mL; MIC [3, 21]: 0.06 µg/mL; MIC ([4]; C203, Table 2, internal code 49, approx. 10^4 cfu/ml, Todd Hewitt broth, 37° C., 20-24 h, air, read-out: MIC): 0.13 µg/mL; MIC [6, 23]: 0.06 µg/mL; MIC [7]: 0.06 µg/mL; MIC [16]: 0.13 µg/mL"
